For this assay, the target named is core histone octamer (Homo sapiens, UniProt P0C0S8+P62805+P62807+P68431). Put plainly: intrinsic histone fluorescence quenching titration. Type of assay: binding.

In turn, `CC[n+]1c(-c2ccccc2)c2cc(N)ccc2c2ccc(N)cc21` [EB, ethidium bromide] returned an equilibrium dissociation constant (Kd) of 7.7 ± 0.1 µM.

Values taken from publication PMC3958746 (FEBS Open Bio, 2014).
